The source made the active and inactive calls. How the calls were made is not given here.
System: CCRIS mutagenicity, Ames/micronucleus/aberration tests
Test: CCRIS mutagenicity studies
[1] = Test System: AMES SALMONELLA TYPHIMURIUM, Strain/Indicator: TA98, Metabolic Activation: NONE, Method: PREINCUBATION
[2] = Test System: AMES SALMONELLA TYPHIMURIUM, Strain/Indicator: TA100, Metabolic Activation: NONE, Method: PREINCUBATION

## O=[N+]([O-])c1ccc(N=N/C(=N\Nc2ccc(I)cc2)c2ccccc2)cc1
Test System: AMES SALMONELLA TYPHIMURIUM, Strain/Indicator: TA97, Metabolic Activation: NONE, Method: SPOT TEST
  mutagenic call: inactive; negative
Test System: AMES SALMONELLA TYPHIMURIUM, Strain/Indicator: TA97, Metabolic Activation: RAT, LIVER, S-9, PHENOBARBITAL, Method: SPOT TEST
  mutagenic call: inactive; negative
[1]
  mutagenic call: inactive; negative
Test System: AMES SALMONELLA TYPHIMURIUM, Strain/Indicator: TA98, Metabolic Activation: NONE, Method: SPOT TEST
  mutagenic call: inactive; negative
Test System: AMES SALMONELLA TYPHIMURIUM, Strain/Indicator: TA98, Metabolic Activation: RAT, LIVER, S-9, PHENOBARBITAL, Method: PREINCUBATION
  mutagenic call: inactive; negative
Test System: AMES SALMONELLA TYPHIMURIUM, Strain/Indicator: TA98, Metabolic Activation: RAT, LIVER, S-9, PHENOBARBITAL, Method: SPOT TEST
  mutagenic call: inactive; negative
[2]
  mutagenic call: inactive; negative
Test System: AMES SALMONELLA TYPHIMURIUM, Strain/Indicator: TA100, Metabolic Activation: NONE, Method: SPOT TEST
  mutagenic call: inactive; negative
Test System: AMES SALMONELLA TYPHIMURIUM, Strain/Indicator: TA100, Metabolic Activation: RAT, LIVER, S-9, PHENOBARBITAL, Method: PREINCUBATION
  mutagenic call: inactive; negative
Test System: AMES SALMONELLA TYPHIMURIUM, Strain/Indicator: TA100, Metabolic Activation: RAT, LIVER, S-9, PHENOBARBITAL, Method: SPOT TEST
  mutagenic call: inactive; negative
Test System: AMES SALMONELLA TYPHIMURIUM, Strain/Indicator: TA102, Metabolic Activation: NONE, Method: SPOT TEST
  mutagenic call: inactive; negative
Test System: AMES SALMONELLA TYPHIMURIUM, Strain/Indicator: TA102, Metabolic Activation: RAT, LIVER, S-9, PHENOBARBITAL, Method: SPOT TEST
  mutagenic call: inactive; negative

## CC(=O)c1ccccc1[N+](=O)[O-]
Test System: AMES SALMONELLA TYPHIMURIUM, Strain/Indicator: TA98, Metabolic Activation: HAMSTER, LIVER, S-9, AROCLOR 1254 (10%), Method: PREINCUBATION
  mutagenic call: inactive; negative
[1]
  mutagenic call: inactive; negative
Test System: AMES SALMONELLA TYPHIMURIUM, Strain/Indicator: TA98, Metabolic Activation: RAT, LIVER, S-9, AROCLOR 1254 (10%), Method: PREINCUBATION
  mutagenic call: inactive; negative
Test System: AMES SALMONELLA TYPHIMURIUM, Strain/Indicator: TA98, Method: PREINCUBATION
  mutagenic call: inactive; negative
Test System: AMES SALMONELLA TYPHIMURIUM, Strain/Indicator: TA100, Metabolic Activation: HAMSTER, LIVER, S-9, AROCLOR 1254 (10%), Method: PREINCUBATION
  mutagenic call: inactive; negative
[2]
  mutagenic call: inactive; negative
Test System: AMES SALMONELLA TYPHIMURIUM, Strain/Indicator: TA100, Metabolic Activation: RAT, LIVER, S-9, AROCLOR 1254 (10%), Method: PREINCUBATION
  mutagenic call: inactive; negative
Test System: AMES SALMONELLA TYPHIMURIUM, Strain/Indicator: TA100, Method: PREINCUBATION
  mutagenic call: inactive; negative
Test System: AMES SALMONELLA TYPHIMURIUM, Strain/Indicator: TA1535, Metabolic Activation: HAMSTER, LIVER, S-9, AROCLOR 1254 (10%), Method: PREINCUBATION
  mutagenic call: inactive; negative
Test System: AMES SALMONELLA TYPHIMURIUM, Strain/Indicator: TA1535, Metabolic Activation: NONE, Method: PREINCUBATION
  mutagenic call: inactive; negative
Test System: AMES SALMONELLA TYPHIMURIUM, Strain/Indicator: TA1535, Metabolic Activation: RAT, LIVER, S-9, AROCLOR 1254 (10%), Method: PREINCUBATION
  mutagenic call: inactive; negative
Test System: AMES SALMONELLA TYPHIMURIUM, Strain/Indicator: TA1535, Method: PREINCUBATION
  mutagenic call: inactive; negative
Test System: AMES SALMONELLA TYPHIMURIUM, Strain/Indicator: TA1537, Metabolic Activation: HAMSTER, LIVER, S-9, AROCLOR 1254 (10%), Method: PREINCUBATION
  mutagenic call: inactive; negative
Test System: AMES SALMONELLA TYPHIMURIUM, Strain/Indicator: TA1537, Metabolic Activation: NONE, Method: PREINCUBATION
  mutagenic call: inactive; negative
Test System: AMES SALMONELLA TYPHIMURIUM, Strain/Indicator: TA1537, Metabolic Activation: RAT, LIVER, S-9, AROCLOR 1254 (10%), Method: PREINCUBATION
  mutagenic call: inactive; negative
Test System: AMES SALMONELLA TYPHIMURIUM, Strain/Indicator: TA1537, Method: PREINCUBATION
  mutagenic call: inactive; negative
Test System: AMES SALMONELLA TYPHIMURIUM, Strain/Indicator: TA1538, Metabolic Activation: NONE, Method: PREINCUBATION
  mutagenic call: inactive; negative
Test System: AMES SALMONELLA TYPHIMURIUM, Strain/Indicator: TA1538, Method: PREINCUBATION
  mutagenic call: inactive; negative

## O=C(n1ccnc1)n1ccnc1
Test System: AMES SALMONELLA TYPHIMURIUM, Strain/Indicator: TA98, Metabolic Activation: NONE, Method: STANDARD PLATE
  mutagenic call: inactive; negative
Test System: AMES SALMONELLA TYPHIMURIUM, Strain/Indicator: TA98, Metabolic Activation: RAT, LIVER, S-9, AROCLOR 1254, Method: STANDARD PLATE
  mutagenic call: inactive; negative
Test System: AMES SALMONELLA TYPHIMURIUM, Strain/Indicator: TA100, Metabolic Activation: NONE, Method: STANDARD PLATE
  mutagenic call: inactive; negative
Test System: AMES SALMONELLA TYPHIMURIUM, Strain/Indicator: TA100, Metabolic Activation: RAT, LIVER, S-9, AROCLOR 1254, Method: STANDARD PLATE
  mutagenic call: inactive; negative
Test System: AMES SALMONELLA TYPHIMURIUM, Strain/Indicator: TA1535, Metabolic Activation: NONE, Method: STANDARD PLATE
  mutagenic call: inactive; negative
Test System: AMES SALMONELLA TYPHIMURIUM, Strain/Indicator: TA1535, Metabolic Activation: RAT, LIVER, S-9, AROCLOR 1254, Method: STANDARD PLATE
  mutagenic call: inactive; negative
Test System: AMES SALMONELLA TYPHIMURIUM, Strain/Indicator: TA1537, Metabolic Activation: NONE, Method: STANDARD PLATE
  mutagenic call: inactive; negative
Test System: AMES SALMONELLA TYPHIMURIUM, Strain/Indicator: TA1537, Metabolic Activation: RAT, LIVER, S-9, AROCLOR 1254, Method: STANDARD PLATE
  mutagenic call: inactive; negative

## CC(Cl)C(Br)CBr (configuration not stated)
Test System: AMES SALMONELLA TYPHIMURIUM, Strain/Indicator: TA100, Metabolic Activation: RAT, LIVER, MICROSOMES, PHENOBARBITAL, Method: PREINCUBATION
  mutagenic call: active; positive
Test System: AMES SALMONELLA TYPHIMURIUM, Strain/Indicator: TA100, Metabolic Activation: RAT, LIVER, MICROSOMES, Method: PREINCUBATION
  mutagenic call: active; positive

## CC1(c2ccc(Cl)cc2)CO1 (configuration not stated)
[2]
  mutagenic call: active; positive

## c1cc2c3c(cccc3c1)-c1c-2c2ccccc2c2ccccc12
Test System: HUMAN H1A1V2 CELLS, Strain/Indicator: TK LOCUS, Metabolic Activation: NONE, Method: SUSPENSION/PLATE
  mutagenic call: inactive; negative
